As usually defined, the logD is lipophilicity at a set pH, counting ionised and neutral species. Lower therefore signals a more hydrophilic compound.

One data set deals with T1, rat PDE2A (Rattus norvegicus, UniProt Q01062).
T1 construct: Frozen sagittal 12 µm brain sections obtained from female SPRD and male Wistar-Han rats; from tissue; host or cells: rat brain cryosections (female SPRD and male Wistar-Han rats)
T1 sequence (Q01062 1-928): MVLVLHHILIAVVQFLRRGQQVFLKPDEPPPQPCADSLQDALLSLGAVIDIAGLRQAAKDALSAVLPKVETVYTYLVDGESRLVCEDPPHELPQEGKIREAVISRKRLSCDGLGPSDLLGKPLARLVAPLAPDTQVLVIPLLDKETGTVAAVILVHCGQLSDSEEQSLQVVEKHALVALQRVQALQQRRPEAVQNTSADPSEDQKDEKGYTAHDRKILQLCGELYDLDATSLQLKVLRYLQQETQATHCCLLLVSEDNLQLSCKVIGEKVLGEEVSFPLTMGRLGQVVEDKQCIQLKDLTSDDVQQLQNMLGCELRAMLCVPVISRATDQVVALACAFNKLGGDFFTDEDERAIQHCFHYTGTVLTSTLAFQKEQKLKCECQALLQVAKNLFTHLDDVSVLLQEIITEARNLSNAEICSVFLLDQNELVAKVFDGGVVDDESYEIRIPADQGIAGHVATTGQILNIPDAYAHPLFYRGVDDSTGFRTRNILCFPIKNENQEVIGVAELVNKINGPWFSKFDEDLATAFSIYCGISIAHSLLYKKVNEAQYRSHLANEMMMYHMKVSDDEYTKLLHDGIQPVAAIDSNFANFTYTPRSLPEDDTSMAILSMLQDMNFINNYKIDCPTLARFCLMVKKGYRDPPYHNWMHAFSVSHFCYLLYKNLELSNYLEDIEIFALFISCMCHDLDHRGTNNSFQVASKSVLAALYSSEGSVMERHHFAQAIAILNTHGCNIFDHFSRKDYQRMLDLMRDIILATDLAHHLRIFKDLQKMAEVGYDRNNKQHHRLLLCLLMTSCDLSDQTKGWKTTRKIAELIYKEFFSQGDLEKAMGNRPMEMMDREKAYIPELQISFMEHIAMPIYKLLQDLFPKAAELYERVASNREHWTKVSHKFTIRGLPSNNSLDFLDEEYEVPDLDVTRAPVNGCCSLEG
Put plainly: In vitro autoradiography with rat brain cryosections. It is filed as binding. The settings on record: for Kd: read-out: apparent KD. As for the experimental part: Frozen sagittal 12 µm brain sections obtained from female SPRD and male Wistar-Han rats (10–12 weeks old) were thawed, dried in a stream of cold air, and pre-incubated for 15 min with incubation buffer (50 mM TRIS-HCl, pH 7.4; supplemented with 1 mM MgCl2, 1 mM CaCl2, 2 mM KCl, and 2 U/mL Adenosine deaminase) at ambient temperature. Afterwards, the buffer was decanted and the cryosections dried again in a stream of cold air before covering with the radioligand in incubation buffer (~0.1 MBq [^18F]11/mL; Am at the time of the incubation ~10 GBq/µmol) for incubation at ambient temperature for 90 min.
The incubation was terminated by pouring off the incubation solution and washing the slides twice with ice-cold buffer (50 mM TRIS-HCl, pH 7.4/4 °C) for 2 min and rinsing by dipping in ice-cold demineralised water. Immediately afterwards, the sections were dried in a stream of cold air and exposed along with appropriate radioactive standards (1 µL of serial dilutions of the radioligand in incubation buffer, pipetted on a microscopic glass slide and air dried) to an ^18F-sensitive image plate for 120 min. Finally, the imaging plate was scanned at the highest possible resolution (pixel size 12.6 µm × 12.6 µm) in a phosphor imager (HD-CR 35; Duerr NDT GmbH, Bietigheim Bissingen, Germany) and the digital image analysed with an image analysis program (Aida Image Analyzer v. 4.26; Elysia-raytest GmbH, Straubenhardt, Germany).
For the determination of the protein concentration, four dried 12 µm cryosections were scraped from the microscopic glass slides, transferred in an Eppendorf tube and solubilised with 200 µL of demineralised water. The protein concentration of this solution was determined by a commercial assay (Pierce™ BCA Protein Assay Kit, Thermo Fisher Scientific, Schwerte, Germany). The area of the cryosections was determined during the analysis of the digitized autoradiographic images, and the volume was calculated by multiplying the area with the thickness of the slices. Finally, the protein concentration of the tissue was calculated (37 mg protein/g wet weight).

Data set [1] can be described thus: logD by shake flask method (n-octanol/PBS). It is filed as physicochemical. The settings on record: n-octanol/phosphate-buffered saline, n = 4. As for the experimental part: (§1) In order to estimate the lipophilicity of [^18F]11, the partition coefficient was determined by the shake flask method using n-octanol and phosphate-buffered saline as partition system. […] The chemical stability of the radiotracer was investigated by incubation in phosphate-buffered saline (PBS) and n-octanol at 30 °C.
(§2) The determination of stability and logD value has been performed according to the procedures described by Sadeghzadeh and Wenzel et al..

A short description of data set [2]: Chemical stability of the radiotracer in PBS and n-octanol. It is filed as physicochemical. The settings on record: 30 °C, 60 min, radio-HPLC. As for the experimental part: as §1, §2
The nature of data set [3]: In vivo metabolism in SPRD rats (radio-HPLC of plasma and brain). The settings on record: rat, 30 min p.i., i.v. As for the experimental part: Metabolism in rats has been investigated in the animals applied in PET studies (protocol reported below). In brief, blood was taken from two anesthetized female SPRD rats 30 min after intravenous injection of [^18F]11 followed by decapitation and isolation of the brains. The blood samples and the brains were processed as described above.
Protein precipitation was performed by the addition of ice-cold ACN/H2O (9:1, v/v) in a ratio of 4:1 (v/v) of organic solvent to plasma or brain homogenate, respectively. The samples were vortexed for 3 min, equilibrated on ice for 3 min, and centrifuged for 10 min at 10,000 rpm and the supernatant collected. The precipitates were washed with 100 μL of the solvent mixture and subjected to the same procedure. The combined supernatants were concentrated at 70 °C under argon flow to a final volume of approximately 100 μL and analysed by analytical radio-HPLC with a gradient system (see radiochemistry general section). The peak corresponding to the radiotracer in the radio-chromatogram was identified by co-injecting the sample with the reference compound 11. To determine the percentage of activity in the supernatants compared to total activity, aliquots of each step as well as the precipitates were quantified by an automated gamma counter (1480 WIZARD, Perkin Elmer, Turku, Finland). […]

Setting [4] is: caudate putamen, female SPRD rat.
Where [5] appears, read: caudate putamen, male Wistar-Han rat.

“And” between values parts separate entries of the source, which are not always exact repeats. Equal values may be shown once. Read-outs that look alike come from different tables or passages of the source.

For `CCCC(O)c1ccc([18F])c(-c2nnc3c(C)nc4ccc(C5CC5)nc4n23)c1` (centres unmarked) [[^18F]11], the Kd at rat PDE2A (caudate nucleus and putamen, homologous competition, overall value (SPRD and Wistar)) was ~0.2 nM and 0.24 nM; at rat PDE2A (setting [4]), 0.38 nM; on rat PDE2A (setting [5]), 0.1 nM. For the same compound, the “apparent Bmax” value was ~20 pmol/mg protein and 16 pmol/mg protein at rat PDE2A (caudate nucleus and putamen, overall value (SPRD and Wistar)); 14 pmol/mg protein on rat PDE2A (setting [4]); 18 pmol/mg protein at rat PDE2A (setting [5]). The caudate putamen-to-cerebellum ratio entry on rat PDE2A (in vitro autoradiography, equilibrium conditions) is “about 2”. Besides, in data set [1], the logD worked out at 1.79 ± 0.66. Besides, the chemical stability result in data set [2] is “stable”. In addition, in data set [3], the “fraction of non-metabolized radiotracer in brain” value was 66%. Further, in data set [3], the “fraction of non-metabolized radiotracer in plasma” value is “about 50%”.
